Results reported in patent publication US12522575B2, “2-diarylmethyl-4-aminotetrahydropyran derivatives and related compounds as anticancer, antiinflammatory, antifibrotic and neuroprotective agents” (Atux Iskay LLC, priority 2021, dated 2026).

Tests used:
Type in all cases: cell-based
[1] = tested on: D425 medulloblastoma cells; assay: D425 cell viability / proliferation (CellTiter-Glo); details: for IC50: Medulloblastoma cell, 48 hours treatment, CellTiter-Glo, read-out: IC50 for D425 cell growth
Protocol: D425 medulloblastoma cells were purchased from SigmaAldrich. D425 meduloblastoma cells were cultured in improved Dulbecco's modified Eagle's medium (DMEM) Richter's modification supplemented with 20% fetal bovine serum and 1% Penicillin-streptomycin. Incubation was performed at 37° C. and 5% CO2.
D425 cells were seeded at 3000-3500 cells/90 ul growth medium per well on 96-well tissue culture plates. Cells were incubated overnight to allow them to recover. Next day cells were treated with tested compounds and incubated for 48 hours.
Cell Proliferation assays in triplicate were performed at each concentration. Compounds test range was 1-30 μM (0, 5, 10, 15, 20, 25, and 30). The compounds were dissolved in DMSO. A series of dilutions were made in 1% DMSO in growth medium so that the final concentration of DMSO is 0.1% in all of treatments.
After treatment, cells were allowed to equilibrate at room temperature for one hour. Cell proliferation was measured by Luminescence quantification using Promega CellTiter-Glo Luminescent Cell Viability Assay. To perform the assay, 90 ul of Celltiter-Glo substrate was added to each well, plates were shake for 2 minutes and allowed to equilibrate for 10 minutes at room temperature. Luminescence intensity was measured using the Spectramax i3x plate reader.
(§1) The Luminescence intensity data were analyzed using the computer software Graphpad Prism. In the absence of the compound, the luminescence intensity (Lt) in each data set was defined as 100% cell viability. The percent cell in the presence of each compound was calculated according to the following equation: % Cell=L/Lt, were L=the luminescence intensity in the presence of the compound.
The values of % cell versus a series of compound concentrations (0, 5, 10, 15, 20, 25, and 30 μM) were then plotted using Nonlinear regression analysis of Sigmoidal dose-response curve. IC50 value was determined by the concentration causing a half-maximal percent activity.

[2] = tested on: phosphatase activity in ApoE transfected A172 glioblastoma cells; assay: Cellular in vitro phosphatase activation assay (Malachite Green) in ApoE transfected A172 cells; details: 24 hours
Protocol: Cellular in vitro phosphatase activation assay was performed using the method of Theendakara et al, Molecular and Cellular Neuroscience, 83 (2017), pages 83-91 which is described below:
(§2) A172 glioblastoma cells were cultured in Dulbecco's modified Eagle's medium (DMEM) supplemented with 10% fetal bovine serum and 1% Penicillin-streptomycin. Incubation was performed at 37° C. and 5% CO2.
A172 cells were seeded at 5×10^5 cells/2.5 ml growth medium (without antibiotics) per well on 6-well tissue culture plates. Cells were incubated overnight to allow them to recover and reattach. […]
After 24 hrs, cells were washed twice with imidazole buffer and lysed using NP-40 Lysis buffer. […] The amount of phosphate release in the assay was determined by measuring absorbance at 620 nm using the Spectramax i3x plate reader.
The absorbance intensity data were analyzed using the computer software Graphpad Prism. The phosphate concentration for each sample was determined from the standard curve using phosphate standard concentrations. In order to compare samples, the first set (column A) were there was no transfection performed and no compound added, was designated a baseline; the absorbance measurement in this column was set as 100% phosphatase activity.

[3] = tested on: A172 glioblastoma cells; assay: A172 cell viability / proliferation (CellTiter-Glo); details: Homo sapiens, A 172, 48-72 hours treatment, read-out: IC50 for A172 cell growth
Protocol: as §2
A172 cells were seeded at 3000-3500 cells/90 μL growth medium per well on 96-well tissue culture plates. Cells were incubated overnight to allow them to recover and reattach. Next day cells were treated with tested compounds and incubated for 48-72 hours.
Cell Proliferation assays in triplicate were performed at each concentration. Compounds test range was 1-30 µM (0, 5, 10, 15, 20, 25, and 30). The compounds were dissolved in DMSO. […]
After treatment, cells were allowed to equilibrate at room temperature for 1/2 to one hour. Cell proliferation was measured by Luminescence quantification using Promega CellTiter-Glo Luminescent Cell Viability Assay. […] Luminescence intensity was measured using the Spectramax i3× plate reader.
as §1, with “compound. […]” for “compound.”

IC50 [1] [µM]	SMILES	other results
7.3	O=S(=O)(NC1CCOC(C(c2ccc(F)cc2)c2ccc(F)cc2)C1)c1ccc(OC(F)(F)F)cc1 (stereo not drawn) [Example 16, N-(2-(bis(4-fluorophenyl)methyl)tetrahydro-2H-pyran-4-yl)-4-(trifluoromethoxy)benzenesulfonamide]	–
11.2	O=S(=O)(NC1CCOC(C(c2ccccc2)c2ccccc2)C1)c1ccc(OC(F)(F)F)cc1 (stereo not drawn) [Example 15, N-(2-benzhydryltetrahydro-2H-pyran-4-yl)-4-(trifluoromethoxy)benzenesulfonamide]	–
6	O=S(=O)(NC1CCOC(C2c3ccccc3CCc3ccccc32)C1)c1ccc(C(F)(F)F)cc1 (stereo not drawn) [Example 10, N-(2-(10,11-dihydro-5H-dibenzo[a,d][7]annulen-5-yl)tetrahydro-2H-pyran-4-yl)-4-(trifluoromethyl)benzenesulfonamide]	–
6.6	O=S(=O)(NC1CCOC(C2c3ccccc3CCc3ccccc32)C1)c1ccc(Cl)cc1 (stereo not drawn) [Example 9, 4-chloro-N-(2-(10,11-dihydro-5H-dibenzo[a,d][7]annulen-5-yl)tetrahydro-2H-pyran-4-yl)benzenesulfonamide]	–
9.5	Cc1ccc(S(=O)(=O)NC2CCOC(C3c4ccccc4CCc4ccccc43)C2)cc1 (stereo not drawn) [Example 11, N-(2-(10,11-dihydro-5H-dibenzo[a,d][7]annulen-5-yl)tetrahydro-2H-pyran-4-yl)-4-meth ylbenzenesulfonamide]	–
5.1	O=S(=O)(NC1CCOC(C2c3ccccc3CCc3ccccc32)C1)c1cccc(C(F)(F)F)c1 (stereo not drawn) [Example 13, N-(2-(10,11-dihydro-5H-dibenzo[a,d][7]annulen-5-yl)tetrahydro-2H-pyran-4-yl)-3-(trifluoromethyl)benzenesulfonamide]	–
5.3	O=S(=O)(N[C@H]1CCO[C@@H](C2c3ccccc3CCc3ccccc32)C1)c1ccc(OC(F)(F)F)cc1 (single isomer, unassigned) [Example 7]	–
6.2	O=S(=O)(NC1CCOC(C2c3ccccc3CCc3ccccc32)C1)c1ccc(Br)cc1 (stereo not drawn) [Example 12, 4-bromo-N-(2-(10,11-dihydro-5H-dibenzo[a,d][7]annulen-5-yl)tetrahydro-2H-pyran-4-yl)benzenesulfonamide]	–
10.3	O=S(=O)(NC1CCOC(C2c3ccccc3CCc3ccccc32)C1)c1ccc(OC(F)(F)F)cc1 (racemic) [Example 2, N-(2-(10,11-dihydro-5H-dibenzo[a,d][7]annulen-5-yl)tetrahydro-2H-pyran-4-yl)-4-(trifluoromethoxy)benzenesulfonamide]	% increase from ApoE transfected cell at 5 μM test compound concentration [2]: 7.2%; IC50 [3]: 14.7 µM
–	O=C(NC1CCOC(C2c3ccccc3CCc3ccccc32)C1)c1ccc(OC(F)(F)F)cc1 (stereo not drawn) [Example 14, N-(2-(10,11-dihydro-5H-dibenzo[a,d][7]annulen-5-yl)tetrahydro-2H-pyran-4-yl)-4-(trifluoromethoxy)benzamide]	D425 cell growth, effect at single concentration ([1]; @ 30 μM, 48 hours): ~50% @ 30 μM
